Some test systems named below: NCI-H460; OVCAR-8; PC-3; HOP-92; RXF 393; HOP-62; T47D; HCC 2998; MCF7; EKVX; SF-539; SK-MEL-28; HL-60; SN12C; DU-145; NCI-H522; MDA-MB-435; SK-MEL-5; CAKI-1; SF-268.
Common to all, as to experiment: NCI-60 cell line screen, 48 h

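In this assay, cells in 96-well plates receive the compound at five concentrations for 48 hours. Endpoints are linearly interpolated between the surrounding concentrations. GI50 = concentration required for 50% inhibition of growth.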 Active and inactive are the calls of the source. Cut-off read from the data, not from the text of the source: active = GI50 up to about 1.1 µM and inactive = higher.

The text below walks through data of ChEMBL document CHEMBL1201862, “PubChem BioAssay data set” (2004).

With `Cc1ccc2nc(N/N=C/c3cccc(C)n3)cc(C)c2c1`, the GI50 was 6.89 µM (inactive) with NCI-H460; 20.5 µM (inactive) in the assay with OVCAR-8; 17.7 µM (inactive) in the assay on PC-3; 17.6 µM (inactive) in the assay on HOP-92; 16.5 µM (inactive) with RXF 393; 16 µM (inactive) in the assay on HOP-62. In addition, the GI50 with T47D is 16 µM (inactive); with HCC 2998, 12.6 µM (inactive); with MCF7 it was 13.6 µM (inactive); in the assay with EKVX, 16.6 µM (inactive); with SF-539 it was 17.8 µM (inactive); in the assay with SK-MEL-28 it was 17.1 µM (inactive). Besides, the GI50 in the assay on HL-60 was 2.26 µM (inactive); in the assay on SN12C, 17.2 µM (inactive); with DU-145 it was 17.3 µM (inactive); in the assay with NCI-H522, 17.6 µM (inactive); with MDA-MB-435, 15.7 µM (inactive); with SK-MEL-5, 17.2 µM (inactive). Also, the values for the GI50 with CAKI-1 and with SF-268 were 16.8 µM (inactive) and 17.2 µM (inactive), respectively.
Take `O=C1Oc2ccccc2C(=O)/C1=C\Nc1nc(-c2ccccc2)cs1`: the GI50 is > 100 µM (inactive) with NCI-H460; 8 µM (inactive) with OVCAR-8; 16.9 µM (inactive) in the assay with PC-3; 11.1 µM (inactive) in the assay with HOP-92; 12.4 µM (inactive) in the assay with RXF 393; 23.4 µM (inactive) in the assay on HOP-62. The GI50 with T47D was 15.9 µM (inactive); with HCC 2998 it was 51.4 µM (inactive); in the assay on MCF7, 4.07 µM (inactive); with EKVX, 19.5 µM (inactive); with SF-539, 2.94 µM (inactive); in the assay on SK-MEL-28 it was 16.1 µM (inactive). Moreover, the GI50 is 1.45 µM (inactive) in the assay with HL-60; 7.08 µM (inactive) in the assay with SN12C; 15.3 µM (inactive) in the assay on DU-145; 2.31 µM (inactive) with NCI-H522; 7.38 µM (inactive) with MDA-MB-435; 2.75 µM (inactive) in the assay on SK-MEL-5. The GI50 with CAKI-1 was 3.76 µM (inactive); in the assay with SF-268, 8.75 µM (inactive).
For the compound `O=c1cc(-c2ccccc2)oc2ccc(Oc3nnnn3-c3ccccc3)cc12`, the GI50 with NCI-H460 was > 100 µM (inactive); in the assay on OVCAR-8 it was 42 µM (inactive); in the assay on PC-3 it was > 100 µM (inactive); in the assay on HOP-92 it was 20.1 µM (inactive); in the assay on RXF 393, > 51.5 µM (inactive); with HOP-62 it was 29.4 µM (inactive). In addition, the GI50 in the assay with T47D is 12.1 µM (inactive); in the assay with HCC 2998 it was > 100 µM (inactive); in the assay on MCF7, > 45.9 µM (inactive); in the assay with EKVX it was 12.1 µM (inactive); with SF-539, 27.7 µM (inactive); in the assay with SK-MEL-28, > 55.8 µM (inactive). Besides, the GI50 in the assay on HL-60 was > 100 µM (inactive); in the assay on SN12C, > 42.3 µM (inactive); in the assay with DU-145 it was > 100 µM (inactive); in the assay on NCI-H522, 70.5 µM (inactive); in the assay with MDA-MB-435 it was 11.9 µM (inactive); with SK-MEL-5, > 100 µM (inactive). In addition, the GI50 with CAKI-1 was > 50.1 µM (inactive); with SF-268, 11.8 µM (inactive).
For the compound `O=C(c1ccccc1)c1ccc2nc3n(c2c1)C(c1c(Cl)cccc1Cl)SC3` (stereo not given), the GI50 with NCI-H460 is 3.66 µM (inactive); in the assay on OVCAR-8, 6.65 µM (inactive); with PC-3, 5.41 µM (inactive); in the assay on HOP-92 it was 5.08 µM (inactive); with RXF 393, 5.94 µM (inactive); in the assay on HOP-62, 6.37 µM (inactive). Further, the GI50 in the assay on T47D is 3.08 µM (inactive); in the assay with HCC 2998, 7.05 µM (inactive); in the assay with MCF7, 4.09 µM (inactive); with EKVX, 4.63 µM (inactive); with SF-539, 5.68 µM (inactive); in the assay with SK-MEL-28, 10.4 µM (inactive). The GI50 with HL-60 is 2.36 µM (inactive); with SN12C, 7.64 µM (inactive); with DU-145 it was 13.5 µM (inactive); with NCI-H522, 1.74 µM (inactive); in the assay on MDA-MB-435, 1.77 µM (inactive); in the assay with SK-MEL-5, 3.24 µM (inactive). Moreover, the GI50 in the assay on CAKI-1 was 3.44 µM (inactive); with SF-268 it was 4.79 µM (inactive).
In the case of `O=C1Nc2ccccc2/C1=C\c1c(Cl)[nH]c2ccccc12`, the GI50 in the assay with NCI-H460 was 0.597 µM (active); in the assay on OVCAR-8, 2.42 µM (inactive); in the assay on PC-3, 0.649 µM (active); in the assay on HOP-92, 0.48 µM (active); in the assay with RXF 393, 0.869 µM (active); in the assay on HOP-62, 0.787 µM (active). Further, the GI50 with T47D was 24 µM (inactive); in the assay on HCC 2998, 0.416 µM (active); in the assay with MCF7, 0.366 µM (active); in the assay on EKVX, 1.06 µM (active); with SF-539 it was 0.374 µM (active); with SK-MEL-28, 0.299 µM (active). Further, the GI50 was 0.251 µM (active) in the assay with HL-60; 2.85 µM (inactive) with SN12C; 3.35 µM (inactive) with DU-145; 0.736 µM (active) in the assay with NCI-H522; 0.208 µM (active) with MDA-MB-435; 0.414 µM (active) in the assay on SK-MEL-5. In addition, the GI50 in the assay with CAKI-1 is 0.537 µM (active); in the assay with SF-268, 1.12 µM (active).
Turning to `CN(C)c1ccc(/C=C2\C[C@H]3[C@@H]4CC=C5C[C@@H](N6CCCC6)CC[C@]5(C)[C@H]4CC[C@]3(C)[C@H]2O)cc1`, the GI50 in the assay on NCI-H460 is 1.48 µM (inactive); with OVCAR-8, 0.769 µM (active); in the assay on PC-3 it was 2.18 µM (inactive); with HOP-92, 2.47 µM (inactive); in the assay on RXF 393, 0.966 µM (active); in the assay with HOP-62, 1.71 µM (inactive). Further, the GI50 in the assay on T47D is 0.998 µM (active); in the assay with HCC 2998, 0.91 µM (active); in the assay on MCF7, 2.96 µM (inactive); in the assay with EKVX, 1.83 µM (inactive); in the assay on SF-539, 3.78 µM (inactive); with SK-MEL-28 it was 0.977 µM (active). Also, the GI50 in the assay with HL-60 is 1.15 µM (inactive); with SN12C it was 1.22 µM (inactive); in the assay with DU-145, 3.05 µM (inactive); with NCI-H522 it was 1.11 µM (active); in the assay with MDA-MB-435, 1.35 µM (inactive); in the assay with SK-MEL-5 it was 0.923 µM (active). The GI50 was 1.16 µM (inactive) in the assay with CAKI-1 and 0.989 µM (active) in the assay on SF-268.
On to `COc1cc(-c2cc(O)c(-c3ccc4ccccc4n3)c(O)n2)cc(OC)c1OC`, for which the GI50 was 31 µM (inactive) in the assay with NCI-H460; > 32.4 µM (inactive) in the assay on OVCAR-8; 44.3 µM (inactive) in the assay on PC-3; 26.2 µM (inactive) with HOP-92; 39.9 µM (inactive) with RXF 393; 53.3 µM (inactive) with HOP-62. The GI50 in the assay with T47D was 97.5 µM (inactive); with HCC 2998, > 60.3 µM (inactive); in the assay on MCF7 it was 39.1 µM (inactive); in the assay with EKVX, > 52 µM (inactive); in the assay with SF-539 it was 30.7 µM (inactive); in the assay on SK-MEL-28, 42.1 µM (inactive). Also, the GI50 is 8.55 µM (inactive) in the assay with HL-60; > 56.6 µM (inactive) with SN12C; 44.9 µM (inactive) with DU-145; 13.2 µM (inactive) with NCI-H522; 2.07 µM (inactive) in the assay on MDA-MB-435; 15.1 µM (inactive) in the assay with SK-MEL-5. The GI50 in the assay with CAKI-1 was > 44 µM (inactive); in the assay on SF-268 it was 43 µM (inactive).
